Columns and labels:
barnyard grass [1] = assay: Test Example 3: herbicidal effect by foliage application, Wagner pot (Table 18, symbol H); type: in vivo, barnyard grass (Echinochloa crus-galli); details: 320 g/ha
Summary of the method: (§1)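 Plants were sown in alluvial soil held under 0.1–0.5 cm standing water and grown 14 days in a greenhouse at 25–30 °C. An emulsifiable formulation, water-diluted to the set dose, was then sprayed onto the foliage, and effects were scored three weeks later using previously defined criteria.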

Chinese sprangletop = assay: Test Example 3: herbicidal effect by foliage application, Wagner pot (Table 18, symbol D); type: in vivo, chinese sprangletop (Leptochloa chinensis); details: 320 g/ha
Summary of the method: as §1

rice flat sedge = assay: Test Example 3: herbicidal effect by foliage application, Wagner pot (Table 18, symbol E); type: in vivo, rice flat sedge (Cyperus iria); details: 320 g/ha
Summary of the method: as §1

southern crabgrass [2] = assay: Test Example 4: herbicidal effect by soil treatment (Table 19, symbol F); type: in vivo, southern crabgrass (Digitaria ciliaris); details: amount of applied herbicide 320 g/ha
Excerpt: (§2) [Test Example 4] Herbicidal Effect Test by Soil Treatment
(§3) Sterilized diluvial soil was placed in a plastic box having a length of 21 cm, a width of 13 cm, and a depth of 7 cm. The seeds of each of southern crabgrass, green foxtail, barnyard grass, wild oat, blackgrass, Italian ryegrass, windgrass, velvetleaf, redroot pigweed, lambsquarters, chickweed, false cleavers, persian speedwell, corn, soybean, rice, wheat, beet, and rapeseed were sowed in a spot-like manner and covered with the soil having a thickness of about 1.5 cm. Subsequently, the emulsion agent of the compound of the present invention prepared according to Formulation Example 2 was diluted with water so as to achieve a predetermined herbicide amount, and the diluted emulsion agent was uniformly applied to the surface of the soil with a small-sized spray. The plastic box was placed in a greenhouse at 25° C. to 30° C. for growth of the plants. Three weeks after the herbicide application, the effect of the herbicide on each plant was evaluated according to the criteria of Test Example 1.

green foxtail [3] = assay: Test Example 4: herbicidal effect by soil treatment (Table 19, symbol G); type: in vivo, green foxtail (Setaria viridis); details: amount of applied herbicide 320 g/ha
Summary of the method: (§4)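 Herbicidal effect was rated 3 weeks after treatment, using the scoring criteria of an earlier test. The compound, formulated as an emulsion and diluted in water to a set herbicide amount, had been sprayed uniformly on soil over freshly sown seeds. Growth took place in a greenhouse at 25° C. to 30° C.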

barnyard grass [4] = assay: Test Example 4: herbicidal effect by soil treatment (Table 19, symbol H); type: in vivo, barnyard grass (Echinochloa crus-galli); details: amount of applied herbicide 320 g/ha
Excerpt: as §2, §3

wild oat [5] = assay: Test Example 4: herbicidal effect by soil treatment (Table 19, symbol I); type: in vivo, wild oat (Avena fatua); details: amount of applied herbicide 320 g/ha
Excerpt: as §2, §3

blackgrass [6] = assay: Test Example 4: herbicidal effect by soil treatment (Table 19, symbol J); type: in vivo, blackgrass (Alopecurus myosuroides); details: amount of applied herbicide 320 g/ha
Excerpt: as §2, §3

Italian ryegrass [7] = assay: Test Example 4: herbicidal effect by soil treatment (Table 19, symbol K); type: in vivo, Italian ryegrass (Lolium multiflorum); details: amount of applied herbicide 320 g/ha
Excerpt: as §2, §3

windgrass [8] = assay: Test Example 4: herbicidal effect by soil treatment (Table 19, symbol L); type: in vivo, windgrass (Apera spica-venti); details: amount of applied herbicide 320 g/ha
Excerpt: as §2, §3

velvetleaf [9] = assay: Test Example 4: herbicidal effect by soil treatment (Table 19, symbol M); type: in vivo, velvetleaf (Abutilon theophrasti); details: amount of applied herbicide 320 g/ha
Excerpt: as §2, §3

redroot pigweed [10] = assay: Test Example 4: herbicidal effect by soil treatment (Table 19, symbol N); type: in vivo, redroot pigweed (Amaranthus retroflexus); details: amount of applied herbicide 320 g/ha
Summary of the method: as §4

lambsquarters [11] = assay: Test Example 4: herbicidal effect by soil treatment (Table 19, symbol O); type: in vivo, lambsquarters (Chenopodium album); details: amount of applied herbicide 320 g/ha
Summary of the method: as §4

chickweed [12] = assay: Test Example 4: herbicidal effect by soil treatment (Table 19, symbol P); type: in vivo, common chickweed (Stellaria media); details: amount of applied herbicide 320 g/ha
Excerpt: as §2, §3

southern crabgrass [13] = assay: Test Example 5: herbicidal effect by foliage application, plastic box (Table 20, symbol F); type: in vivo, southern crabgrass (Digitaria ciliaris); details: 320 g/ha
Summary of the method: (§5)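 Foliar spray test: emulsion formulation diluted in water to a set application rate, sprayed onto 14-day-old plants raised in diluvial soil at 25° C to 30° C under glass. Both herbicidal effect and crop effect rated visually three weeks later.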

green foxtail [14] = assay: Test Example 5: herbicidal effect by foliage application, plastic box (Table 20, symbol G); type: in vivo, green foxtail (Setaria viridis); details: 320 g/ha
Summary of the method: as §5

barnyard grass [15] = assay: Test Example 5: herbicidal effect by foliage application, plastic box (Table 20, symbol H); type: in vivo, barnyard grass (Echinochloa crus-galli); details: 320 g/ha
Summary of the method: as §5

wild oat [16] = assay: Test Example 5: herbicidal effect by foliage application, plastic box (Table 20, symbol I); type: in vivo, wild oat (Avena fatua); details: 320 g/ha
Summary of the method: as §5

blackgrass [17] = assay: Test Example 5: herbicidal effect by foliage application, plastic box (Table 20, symbol J); type: in vivo, blackgrass (Alopecurus myosuroides); details: 320 g/ha
Summary of the method: as §5

Italian ryegrass [18] = assay: Test Example 5: herbicidal effect by foliage application, plastic box (Table 20, symbol K); type: in vivo, Italian ryegrass (Lolium multiflorum); details: 320 g/ha
Summary of the method: as §5

windgrass [19] = assay: Test Example 5: herbicidal effect by foliage application, plastic box (Table 20, symbol L); type: in vivo, windgrass (Apera spica-venti); details: 320 g/ha
Summary of the method: as §5

velvetleaf [20] = assay: Test Example 5: herbicidal effect by foliage application, plastic box (Table 20, symbol M); type: in vivo, velvetleaf (Abutilon theophrasti); details: 320 g/ha
Summary of the method: as §5

redroot pigweed [21] = assay: Test Example 5: herbicidal effect by foliage application, plastic box (Table 20, symbol N); type: in vivo, redroot pigweed (Amaranthus retroflexus); details: 320 g/ha
Summary of the method: as §5

lambsquarters [22] = assay: Test Example 5: herbicidal effect by foliage application, plastic box (Table 20, symbol O); type: in vivo, lambsquarters (Chenopodium album); details: 320 g/ha
Summary of the method: as §5

chickweed [23] = assay: Test Example 5: herbicidal effect by foliage application, plastic box (Table 20, symbol P); type: in vivo, common chickweed (Stellaria media); details: 320 g/ha
Summary of the method: as §5

persian speedwell = assay: Test Example 5: herbicidal effect by foliage application, plastic box (Table 20, symbol R); type: in vivo, Persian speedwell (Veronica persica); details: 320 g/ha
Summary of the method: as §5

[24] = foliage application after 14-day growth, evaluated three weeks after application
[25] = foliage application, three weeks after application

Structure (SMILES): CCOc1ccccc1-c1sc2c(Cl)cccc2c1-c1c(O)c(C)nn(C)c1=O [4-025]
- herbicidal effect on barnyard grass (H) (barnyard grass [1]): 5 (Herbicidal rate of 90% or more (almost completely withered))
- herbicidal effect on Chinese sprangletop (D) (Chinese sprangletop): 3 (Herbicidal rate of 40% or more and less than 70%)
- herbicidal effect on rice flat sedge (E) (rice flat sedge): 5 (Herbicidal rate of 90% or more (almost completely withered))
- Herbicidal effect by soil treatment, F: southern crabgrass (southern crabgrass [2]): 2 (Herbicidal rate of 20% or more and less than 40%)
- Herbicidal effect by soil treatment, G: green foxtail (green foxtail [3]): 4 (Herbicidal rate of 70% or more and less than 90%)
- Herbicidal effect by soil treatment, H: barnyard grass (barnyard grass [4]): 3 (Herbicidal rate of 40% or more and less than 70%)
- Herbicidal effect by soil treatment, I: wild oat (wild oat [5]): 0 (Herbicidal rate of 5% or less (almost no effect))
- Herbicidal effect by soil treatment, J: blackgrass (blackgrass [6]): 1 (Herbicidal rate of 5% or more and less than 20%)
- Herbicidal effect by soil treatment, K: Italian ryegrass (Italian ryegrass [7]): 0 (Herbicidal rate of 5% or less (almost no effect))
- Herbicidal effect by soil treatment, L: windgrass (windgrass [8]): 0 (Herbicidal rate of 5% or less (almost no effect))
- Herbicidal effect by soil treatment, M: velvetleaf (velvetleaf [9]): 2 (Herbicidal rate of 20% or more and less than 40%)
- Herbicidal effect by soil treatment, N: redroot pigweed (redroot pigweed [10]): 3 (Herbicidal rate of 40% or more and less than 70%)
- Herbicidal effect by soil treatment, O: lambsquarters (lambsquarters [11]): 1 (Herbicidal rate of 5% or more and less than 20%)
- Herbicidal effect by soil treatment, P: chickweed (chickweed [12]): 0 (Herbicidal rate of 5% or less (almost no effect))
- herbicidal effect on F: southern crabgrass (evaluation grade 0-5) (southern crabgrass [13]; [24]): 3 (Herbicidal rate of 40% or more and less than 70%)
- herbicidal effect on G: green foxtail (evaluation grade 0-5) (green foxtail [14]; [24]): 5 (Herbicidal rate of 90% or more (almost completely withered))
- herbicidal effect on H: barnyard grass (evaluation grade 0-5) (barnyard grass [15]; [24]): 5 (Herbicidal rate of 90% or more (almost completely withered))
- herbicidal effect on I: wild oat (evaluation grade 0-5) (wild oat [16]; [24]): 0 (Herbicidal rate of 5% or less (almost no effect))
- herbicidal effect on J: blackgrass (evaluation grade 0-5) (blackgrass [17]; [24]): 4 (Herbicidal rate of 70% or more and less than 90%)
- herbicidal effect on K: Italian ryegrass (evaluation grade 0-5) (Italian ryegrass [18]; [24]): 3 (Herbicidal rate of 40% or more and less than 70%)
- herbicidal effect on L: windgrass (evaluation grade 0-5) (windgrass [19]; [24]): 5 (Herbicidal rate of 90% or more (almost completely withered))
- herbicidal effect on M: velvetleaf (evaluation grade 0-5) (velvetleaf [20]; [24]): 4 (Herbicidal rate of 70% or more and less than 90%)
- herbicidal effect on N: redroot pigweed (evaluation grade 0-5) (redroot pigweed [21]; [24]): 4 (Herbicidal rate of 70% or more and less than 90%)
- herbicidal effect on O: lambsquarters (evaluation grade 0-5) (lambsquarters [22]; [24]): 3 (Herbicidal rate of 40% or more and less than 70%)
- herbicidal effect on P: chickweed (evaluation grade 0-5) (chickweed [23]; [24]): 4 (Herbicidal rate of 70% or more and less than 90%)
- herbicidal effect on R: persian speedwell (evaluation grade 0-5) (persian speedwell; [24]): 5 (Herbicidal rate of 90% or more (almost completely withered))

Structure (SMILES): Cc1nn(C)c(=O)c(-c2c(-c3ccc(OC(F)(F)F)cc3)sc3ccccc23)c1O [1-031]
- herbicidal effect on H (barnyard grass), rating 0-5 (barnyard grass [1]): 4 (Herbicidal rate of 70% or more and less than 90%)
- herbicidal effect on D (Chinese sprangletop), rating 0-5 (Chinese sprangletop): 0 (Herbicidal rate of 5% or less (almost no effect))
- herbicidal effect on E (rice flat sedge), rating 0-5 (rice flat sedge): 5 (Herbicidal rate of 90% or more (almost completely withered))
- herbicidal effect rating, I: wild oat (wild oat [5]): 0 (Herbicidal rate of 5% or less (almost no effect))
- herbicidal effect rating, K: Italian ryegrass (Italian ryegrass [7]): 3 (Herbicidal rate of 40% or more and less than 70%)
- herbicidal effect rating, N: redroot pigweed (redroot pigweed [10]): 4 (Herbicidal rate of 70% or more and less than 90%)
- herbicidal effect grade, F: southern crabgrass (southern crabgrass [13]; [25]): 0 (Herbicidal rate of 5% or less (almost no effect))
- herbicidal effect grade, G: green foxtail (green foxtail [14]; [25]): 4 (Herbicidal rate of 70% or more and less than 90%)
- herbicidal effect grade, H: barnyard grass (barnyard grass [15]; [25]): 3 (Herbicidal rate of 40% or more and less than 70%)
- herbicidal effect grade, I: wild oat (wild oat [16]; [25]): 0 (Herbicidal rate of 5% or less (almost no effect))
- herbicidal effect grade, J: blackgrass (blackgrass [17]; [25]): 3 (Herbicidal rate of 40% or more and less than 70%)
- herbicidal effect grade, K: Italian ryegrass (Italian ryegrass [18]; [25]): 5 (Herbicidal rate of 90% or more (almost completely withered))
- herbicidal effect grade, L: windgrass (windgrass [19]; [25]): 0 (Herbicidal rate of 5% or less (almost no effect))
- herbicidal effect grade, M: velvetleaf (velvetleaf [20]; [25]): 5 (Herbicidal rate of 90% or more (almost completely withered))
- herbicidal effect grade, N: redroot pigweed (redroot pigweed [21]; [25]): 5 (Herbicidal rate of 90% or more (almost completely withered))
- herbicidal effect grade, O: lambsquarters (lambsquarters [22]; [25]): 5 (Herbicidal rate of 90% or more (almost completely withered))
- herbicidal effect grade, P: chickweed (chickweed [23]; [25]): 5 (Herbicidal rate of 90% or more (almost completely withered))
- herbicidal effect grade, R: persian speedwell (persian speedwell; [25]): 5 (Herbicidal rate of 90% or more (almost completely withered))

Source: patent publication US20230085307A1, “PYRIDAZINONE COMPOUND AND HERBICIDE” (NISSAN CHEMICAL CORPORATION, priority 2019, published 2023)
